Data from patent US8334382B2, “Substituted biaryl piperazinyl-pyridine analogues” (Neurogen Corporation, priority 2004, dated 2012).

These compounds were tested against T1, human capsaicin receptor (Homo sapiens, UniProt Q8NER1) (assay: Calcium mobilization assay, determination of antagonist activity). Details: capsaicin at EC50; cells expressing human capsaicin receptor; Example 6.
T1 construct: expressed in transfected cells; host or cells: HEK293, stably transfected with pBK-CMV construct
Type: cell-based
How it was run: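 HEK293 cells stably expressing full-length human TRPV1, loaded with Fluo-3 AM in KRH buffer pH 7.4, preincubated with compound (final 1-5 µM) in the dark at room temperature for 0.5-6 h, then stimulated with capsaicin at its EC50. FLIPR fluorescence gave IC50 as concentration halving the capsaicin response.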

T1 sequence (Q8NER1 whole entry): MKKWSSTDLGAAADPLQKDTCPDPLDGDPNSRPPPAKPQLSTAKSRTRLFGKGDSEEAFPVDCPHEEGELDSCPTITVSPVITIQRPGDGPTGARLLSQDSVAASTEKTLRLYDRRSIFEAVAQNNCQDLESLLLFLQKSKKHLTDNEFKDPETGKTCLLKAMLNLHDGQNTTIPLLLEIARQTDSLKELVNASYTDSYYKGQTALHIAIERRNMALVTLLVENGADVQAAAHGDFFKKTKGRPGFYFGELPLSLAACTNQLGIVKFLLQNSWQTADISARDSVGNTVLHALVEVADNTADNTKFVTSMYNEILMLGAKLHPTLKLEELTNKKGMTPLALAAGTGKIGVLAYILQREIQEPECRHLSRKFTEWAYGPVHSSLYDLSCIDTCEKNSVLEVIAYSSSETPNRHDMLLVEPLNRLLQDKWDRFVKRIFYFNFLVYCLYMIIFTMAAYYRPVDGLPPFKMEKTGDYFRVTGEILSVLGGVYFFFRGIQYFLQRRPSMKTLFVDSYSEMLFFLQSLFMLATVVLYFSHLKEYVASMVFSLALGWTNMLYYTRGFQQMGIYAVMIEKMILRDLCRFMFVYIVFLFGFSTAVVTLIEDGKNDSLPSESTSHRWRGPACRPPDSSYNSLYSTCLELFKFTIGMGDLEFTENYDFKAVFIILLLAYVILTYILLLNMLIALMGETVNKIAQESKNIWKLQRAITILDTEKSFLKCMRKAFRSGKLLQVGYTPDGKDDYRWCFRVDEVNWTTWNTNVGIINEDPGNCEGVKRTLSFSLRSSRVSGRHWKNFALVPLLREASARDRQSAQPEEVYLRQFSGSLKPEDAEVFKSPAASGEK

IC50	Compound
≤ 1 µM	Cc1cc(C(=O)NC2CC2)cnc1N1CCN(c2cc(-c3ccc(F)cc3)nc(N3CCCC3C)n2)CC1 (stereo not drawn) [Example 106, N-Cyclopropyl-6-{4-[6-(4-fluoro-phenyl)-2-(2-methyl-pyrrolidin-1-yl)-pyrimidin-4-yl]-piperazin-1-yl}-5-methyl-nicotinamide]
≤ 1 µM	Cc1cc(C(=O)NC2CCC2)cnc1N1CCN(c2cc(-c3ccc(F)cc3)nc(N3CCCC3C)n2)CC1 (stereo not drawn) [Example 107, N-cyclobutyl-6-{4-[6-(4-fluorophenyl)-2-(2-methylpyrrolidin-1-yl)pyrimidin-4-yl]piperazin-1-yl}-5-methylnicotinamide]
≤ 1 µM	Cc1cc(C(=O)NC2CCCC2)cnc1N1CCN(c2cc(-c3ccc(F)cc3)nc(N3CCCC3C)n2)CC1 (stereo not drawn) [Example 108, N-Cyclopentyl-6-{4-[6-(4-fluoro-phenyl)-2-(2-methyl-pyrrolidin-1-yl)-pyrimidin-4-yl]-piperazin-1-yl}-5-methyl-nicotinamide]
≤ 1 µM	COCCNC(=O)c1cnc(N2CCN(c3cc(-c4ccc(F)cc4)nc(N4CCCC4C)n3)CC2)c(C)c1 (stereo not drawn) [Example 109, 6-{4-[6-(4-fluorophenyl)-2-(2-methylpyrrolidin-1-yl)pyrimidin-4-yl]piperazin-1-yl}-N-(2-methoxyethyl)-5-methylnicotinamide]
≤ 1 µM	COCCCNC(=O)c1cnc(N2CCN(c3cc(-c4ccc(F)cc4)nc(N4CCCC4C)n3)CC2)c(C)c1 (stereo not drawn) [Example 110, 6-{4-[6-(4-fluorophenyl)-2-(2-methylpyrrolidin-1-yl)pyrimidin-4-yl]piperazin-1-yl}-N-(3-methoxypropyl)-5-methylnicotinamide]
≤ 1 µM	Cc1cc(C(=O)NCC2CCCO2)cnc1N1CCN(c2cc(-c3ccc(F)cc3)nc(N3CCCC3C)n2)CC1 (stereo not drawn) [Example 111, 6-{4-[6-(4-fluorophenyl)-2-(2-methylpyrrolidin-1-yl)pyrimidin-4-yl]piperazin-1-yl}-5-methyl-N-(tetrahydrofuran-2-ylmethyl)nicotinamide]
≤ 1 µM	CCOCCCNC(=O)c1cnc(N2CCN(c3cc(-c4ccc(F)cc4)nc(N4CCCC4C)n3)CC2)c(C)c1 (stereo not drawn) [Example 112, N-(3-ethoxypropyl)-6-{4-[6-(4-fluorophenyl)-2-(2-methylpyrrolidin-1-yl)pyrimidin-4-yl]piperazin-1-yl}-5-methylnicotinamide]
≤ 1 µM	Cc1cc(C(=O)NCc2ccccc2)cnc1N1CCN(c2cc(-c3ccc(F)cc3)nc(N3CCCC3C)n2)CC1 (stereo not drawn) [Example 113, N-benzyl-6-{4-[6-(4-fluorophenyl)-2-(2-methylpyrrolidin-1-yl)pyrimidin-4-yl]piperazin-1-yl}-5-methylnicotinamide]
≤ 1 µM	Cc1cc(C(=O)NCc2ccc(F)cc2)cnc1N1CCN(c2cc(-c3ccc(F)cc3)nc(N3CCCC3C)n2)CC1 (stereo not drawn) [Example 114, N-(4-fluorobenzyl)-6-{4-[6-(4-fluorophenyl)-2-(2-methylpyrrolidin-1-yl)pyrimidin-4-yl]piperazin-1-yl}-5-methylnicotinamide]
≤ 1 µM	COc1ccc(CNC(=O)c2cnc(N3CCN(c4cc(-c5ccc(F)cc5)nc(N5CCCC5C)n4)CC3)c(C)c2)cc1 (stereo not drawn) [Example 115, 6-{4-[6-(4-fluorophenyl)-2-(2-methylpyrrolidin-1-yl)pyrimidin-4-yl]piperazin-1-yl}-N-(4-methoxybenzyl)-5-methylnicotinamide]

The next lines start with the compound.

Compound	IC50
Cc1cc(C(=O)O)cnc1N1CCN(c2cc(-c3ccc(F)cc3)nc(N3CCC[C@H]3C)n2)[C@H](C)C1 [Example 95, 6-{4-[6-(4-Fluoro-phenyl)-2-(2-(R)-methyl-pyrrolidin-1-yl)-pyrimidin-4-yl]-3-(R)-methyl-piperazin-1-yl}-5-methyl-nicotinic acid]	≤ 1 µM
Cc1cc(C(=O)O)cnc1N1CCN(c2cc(-c3ccccc3)nc(N3CCC[C@H]3C)n2)[C@H](C)C1 [Example 96, 5-Methyl-6-{3-(R)-methyl-4-[2-(2-(R)-methyl-pyrrolidin-1-yl)-6-phenyl-pyrimidin-4-yl]-piperazin-1-yl}-nicotinic acid]	≤ 1 µM
CC1CCCN1c1nc(-c2ccc(F)c(Cl)c2)cc(N2CCN(c3ncc(C(N)=O)cn3)CC2)n1 (stereo not drawn) [Example 97, 2-{4-[6-(3-Chloro-4-fluoro-phenyl)-2-(2-methyl-pyrrolidin-1-yl)-pyrimidin-4-yl]-piperazin-1-yl}-pyrimidine-5-carboxylic acid amide]	≤ 1 µM
C[C@@H]1CN(c2ncc(CO)cc2Cl)CCN1c1cc(-c2ccc(F)cc2)nc(N2CCC[C@H]2C)n1 [Example 98, (5-Chloro-6-{4-[6-(4-fluoro-phenyl)-2-(2-(R)-methyl-pyrrolidin-1-yl)-pyrimidin-4-yl]-3-(R)-methyl-piperazin-1-yl}-pyridin-3-yl)-methanol]	≤ 1 µM
Cc1cc(C(=O)O)cnc1N1CCN(c2cc(-c3ccc(F)cc3)nc(N3CCC[C@@H]3C)n2)[C@H](C)C1 [Example 99, 6-{4-[6-(4-Fluoro-phenyl)-2-(2-(S)-methyl-pyrrolidin-1-yl)-pyrimidin-4-yl]-3-(R)-methyl-piperazin-1-yl}-5-methyl-nicotinic acid]	≤ 1 µM
C[C@@H]1CN(c2ncc(CC#N)cc2Cl)CCN1c1cc(-c2ccc(F)cc2)nc(N2CCC[C@H]2C)n1 [Example 100, (5-Chloro-6-{4-[6-(4-fluoro-phenyl)-2-(2-(R)-methyl-pyrrolidin-1-yl)-pyrimidin-4-yl]-3-(R)-methyl-piperazin-1-yl}-pyridin-3-yl)-acetonitrile]	≤ 1 µM
C[C@@H]1CN(c2ncc(CC(=O)O)cc2Cl)CCN1c1cc(-c2ccc(F)cc2)nc(N2CCC[C@H]2C)n1 [Example 101, (5-Chloro-6-{4-[6-(4-fluoro-phenyl)-2-(2-(R)-methyl-pyrrolidin-1-yl)-pyrimidin-4-yl]-3-(R)-methyl-piperazin-1-yl}-pyridin-3-yl)-acetic acid]	≤ 1 µM
C[C@@H]1CN(c2ncc(C(N)=O)cc2Cl)CCN1c1cc(-c2ccc(F)c(Cl)c2)nc(N2CCC[C@H]2C)n1 [Example 102, 5-Chloro-6-{4-[6-(3-chloro-4-fluoro-phenyl)-2-(2-(R)-methyl-pyrrolidin-l-yl)-pyrimidin-4-yl]-3-(R)-methyl-piperazin-1-yl}-nicotinamide]	≤ 1 µM
C[C@@H]1CN(c2ncc(C(=O)O)cc2Cl)CCN1c1cc(-c2ccc(F)c(Cl)c2)nc(N2CCC[C@H]2C)n1 [Example 103, 5-Chloro-6-{4-[6-(3-chloro-4-fluoro-phenyl)-2-(2-(R)-methyl-pyrrolidin-l-yl)-pyrimidin-4-yl]-3-(R)-methyl-piperazin-1-yl}-nicotinic acid]	≤ 1 µM
C[C@@H]1CN(c2ncc(C(=O)O)cc2Cl)CCN1c1cc(-c2ccc(F)cc2)nc(N2CCOC[C@H]2C)n1 [Example 104, 5-Chloro-6-{4-[6-(4-fluoro-phenyl)-2-(3-(R)-methyl-morpholin-4-yl)-pyrimidin-4-yl]-3-(R)-methyl-piperazin-1-yl}-nicotinic acid]	≤ 1 µM
Cc1cc(CC(=O)O)cnc1N1CCN(c2cc(-c3ccc(F)cc3)nc(N3CCC[C@H]3C)n2)[C@H](C)C1 [Example 105, (6-{4-[6-(4-Fluoro-phenyl)-2-(2-(R)-methyl-pyrrolidin-1-yl)-pyrimidin-4-yl]-3-(R)-methyl-piperazin-1-yl}-5-methyl-pyridin-3-yl)-acetic acid]	≤ 1 µM
